Results taken from patent publication US10435375B2, “CXCR4 chemokine receptor modulators” (NORTHWESTERN UNIVERSITY, priority 2015, dated 2019).
“Also recorded” adds a separate entry of the source.

Target: CXCR4 (Homo sapiens, UniProt P61073)
Test: Calcium imaging ((Ca)i mobilization) assay, fura-2, C8161 melanoma cells
Type: cell-based
Set-up: human melanoma cell line C8161 was initially used, which expresses numerous human CXCR4 receptors; endogenous in cells; host or cells: C8161 human melanoma cells
Conditions: for compound's (Ca)i response in presence of CXCR4 antagonist AMD3100 / own (Ca)i response (agonist effect) / IC50 / effect on SDF-1-induced (Ca)i response: C8161 cells; for compound's (Ca)i response in presence of CXCR4 antagonist AMD3100: AMD3100 1 μM where stated; for own (Ca)i response (agonist effect): compounds 10 μM where stated, SDF-1 100 nM; for Ca^2+ Assay: Table 1, calcium imaging behavior; for Pharmacology: Table 2, agonist or antagonist; for IC50: multiple concentrations, dose-response, read-out: estimated IC50 (antagonism of SDF-1 (Ca)i response); for effect on SDF-1-induced (Ca)i response: test compounds 10 μM
Excerpt: The initial assay for examining the activity of different molecules was based on the fact that activation of CXCR4 receptors produces an increase in the intracellular free Ca^2+ concentration (Ca)i. This signal can easily be observed using a fluorescent Ca^2+ sensing dye such as fura-2. The quantitative nature of this assay makes it ideal for screening purposes. Moreover, the assay can also distinguish potential antagonists from potential agonists. The aggressive human melanoma cell line C8161 was initially used, which expresses numerous human CXCR4 receptors and produces strong (Ca)I signals when stimulated with SDF-1 (FIG. 3). In the assay, cells were usually stimulated twice with SDF-1. […] To test a drug, the compound in question was usually added prior to the second stimulation with SDF-1. At this point it was possible to observe whether the compound itself acted as an agonist by giving its own response or if it reduced the magnitude of the second response to SDF-1. […] Each of the four antagonists were then assayed at multiple concentrations to obtain a dose-response relationship and an estimated IC50. Antagonists NUCC-388, 397, 392, and 51420 had IC50 values of 0.3 μM, 3 μM, 1 μM, and 1 μM respectively.

Sequence of CXCR4 (P61073 whole entry): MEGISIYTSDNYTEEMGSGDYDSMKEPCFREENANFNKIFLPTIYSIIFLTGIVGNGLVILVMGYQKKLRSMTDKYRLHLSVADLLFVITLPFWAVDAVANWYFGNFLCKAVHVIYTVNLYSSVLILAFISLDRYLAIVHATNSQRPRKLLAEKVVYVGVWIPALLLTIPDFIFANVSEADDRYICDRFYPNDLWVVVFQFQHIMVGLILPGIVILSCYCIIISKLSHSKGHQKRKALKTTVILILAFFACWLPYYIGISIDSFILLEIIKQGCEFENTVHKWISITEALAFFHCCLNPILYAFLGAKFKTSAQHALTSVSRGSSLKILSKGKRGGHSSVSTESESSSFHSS

| Ca^2+ Assay | Pharmacology | compound's (Ca)i response in presence of CXCR4 antagonist AMD3100 | own (Ca)i response (agonist effect) | Structure (SMILES) | further results |
| --- | --- | --- | --- | --- | --- |
| Agonist | Agonist | – | – | COCCNC(=O)c1nn(CCC(C)C)c2c1CN(Cc1ncc[nH]1)CC2 [NUCC-0000398, 5-((1H-imidazol-2-yl)methyl)-1-isopentyl-N-(2-methoxyethyl)-4,5,6,7-tetrahydro-1H-pyrazolo(4,3-c)pyridine-3-carboxamide] | compound's (Ca)i response in presence of CXCR4 antagonist AMD3100 (listed as NUCC-398): completely inhibited; also recorded: inhibited by AMD3100; own (Ca)i response (agonist effect) (listed as NUCC-398): produced their own response; also recorded: robust agonist activity; also recorded: Agonist effects |
| – | Antagonist | – | – | COC(=O)c1c(NC(=O)C2CCOC2)c2cc(NCC(C)Cc3ccc4c(c3)OCO4)cnc2n1CCCc1ccccc1 (centres unmarked) [NUCC-0000392] | IC50: 1000 nM; effect on SDF-1-induced (Ca)i response: antagonized the effects of SDF-1 |
| – | Agonist | – | – | COCCn1c(C(=O)OC)c(NC(=O)CCc2ccccc2)c2cc(NCCC(C)c3ccccc3)cnc21 (centres unmarked) [NUCC-0000393] | – |
| – | Agonist | prevented calcium signaling | robust calcium response | CCCn1nc(C(=O)N(C)Cc2ccccc2)c2c1CCC(NCCCN1CCOCC1)C2 (centres unmarked) [NUCC-0176301] | – |
| Antagonist | – | – | – | COC(=O)c1c(NC(=O)[C@H]2CCOC2)c2cc(NC[C@H](C)Cc3ccc4c(c3)OCO4)cnc2n1CCCc1ccccc1 [NUCC-0000392] | – |
| Agonist | Agonist | inhibited by AMD3100 | robust agonist activity | CCCn1nc(C(=O)N2CCCCC2)c2c1CCC(NCCCN1CCOCC1)C2 (centres unmarked) [NUCC-0054127] | – |
| Antagonist | Agonist | inhibited by AMD3100 | robust agonist activity | CCCn1nc(C(=O)N2CCCCC2)c2c1CCC(NCCc1cccnc1)C2 (centres unmarked) [NUCC-0054118, Piperidin-1-yl(1-propyl-5-((2-(pyridin-3-yl)ethyl)amino)-4,5,6,7-tetrahydro-1H-indazol-3-yl)methanone] | – |
| – | Agonist | – | – | Cc1ncsc1CCn1nc(C(=O)NC2CC2)c2c1CCN(Cc1ccc3c(c1)OCO3)C2 [NUCC-0000387] | – |
| – | Agonist | prevented calcium signaling | robust calcium response | CCCn1nc(C(=O)N(C)C)c2c1CCC(NCCc1cccnc1)C2 (centres unmarked) [NUCC-0176308] | – |
| – | Agonist | prevented calcium signaling | robust calcium response | CCCn1nc(C(=O)N2CCCCC2)c2c1CCC(NCc1ccc(F)cc1)C2 (centres unmarked) [NUCC-0176306] | – |
| – | Antagonist | – | robust calcium response | Cn1nc(C(=O)N2CCCCC2)c2c1CCC(NCc1ccc(F)cc1)C2 (centres unmarked) [NUCC-0176290] | effect on SDF-1-induced (Ca)i response: blocks the effect of SDF-1 |
| – | Agonist | – | robust calcium response | CCCn1nc(C(=O)N(C)C)c2c1CCC(NCCCN1CCCC1=O)C2 (centres unmarked) [NUCC-0176311] | – |
| Agonist | Antagonist | – | – | CCCn1nc(C(=O)N2CCCCC2)c2c1CCC(NCCCN1CCCC1=O)C2 (centres unmarked) [NUCC-0054120, 1-(3-((3-(Piperidine-1-carbonyl)-1-propyl-4,5,6,7-tetrahydro-1H-indazol-5-yl)amino)propyl)pyrrolidin-2-one] | IC50: 1000 nM; effect on SDF-1-induced (Ca)i response: antagonized the effects of SDF-1 |
| – | Agonist | – | robust calcium response | CCCn1nc(C(=O)N(C)Cc2ccccc2)c2c1CCC(NCc1ccc(F)cc1)C2 (centres unmarked) [NUCC-0176303] | – |
